Measured values: patent US6002008A, “Substituted 3-cyano quinolines” (American Cyanamid Company, priority 1998, dated 1999)

How the values were obtained:
[1] = target: gastric (H^+ /K^+)-ATPase (Sus scrofa, UniProt P19156); conditions: Ife R. J., et al., J. Med. Chem., 35(18), 3413 (1992); cited from earlier work
[2] = target: recombinant human MEK 1 (MAPKK) and recombinant human ERK2 (MAPK); assay: Mitogen Activated Protein Kinase (MAPK) Assay, coupled MEK/ERK; assay type: biochemical; conditions: separate entries = evaluated more than once
Experimental: To evaluate inhibitors of the MAP (mitogen activated protein) kinase a two component coupled standard pharmacological test procedure, which measures phosphorylation of a serine/threonine residue in an appropriate sequence in the substrate in the presence and absence of a putative inhibitor, was used. Recombinant human MEK 1 (MAPKK) was first used to activate recombinant human ERK2 (MAPK) and the activated MAPK (ERK) was incubated with substrate (MBP peptide or MYC peptide) in the presence of ATP, Mg^+2 and radiolabeled ^33 P ATP. The phosphorylated peptide was captured on a P 81 phosphocellulose filter (paper filter or embedded in microtiter plate) washed and counted by scintillation methods.
The peptide substrates used in the assay are MBP, peptide substrate ([sequence]), or synthetic Myc substrate, ([sequence].cndot.5 TFA. The recombinant enzymes used were prepared as GST fusion proteins of human ERK 2 and human MEK 1. Inhibitor samples were prepared as 10× stocks in 10% DMSO and an appropriate aliquot was used to deliver either 10 ug/ml for a single point screening dose or 100, 10, 1, and 0.1 uM final concentration for a dose response curve. Final DMSO concentrations were less than or equal to 1%.
The reaction was run as follows in 50 mM Tris kinase buffer, pH 7.4 in a reaction volume of 50 ul. The appropriate volume of kinase buffer and inhibitor sample was added to the tube. Appropriate dilution of enzyme was delivered to give 2-5 ug recombinant MAPK (Erk) per tube. The inhibitor was incubated with MAPK (Erk) for min at 0 deg. […] Recombinant Mek (MAPKK) (0.5-2.5 ug) or fully activated Mek (0.05-0.1 units) was added to activate the Erk and incubated for 30 min at 30° C. […] Samples were incubated at 30° C. for 30 minutes and the reaction was stopped by adding 25 μl of ice cold 10% TCA After samples were chilled on ice for 30 min, 20 μl of sample was transferred onto P 81 phosphocellulose filter paper or appropriate MTP with embedded P 81 filter. Filter papers or MTP were washed 2 times with a large volume of 1% acetic acid, then 2 times with water. The filters or MTP were briefly air dried before addition of scintillant and samples were counted in the appropriate scintillation counter set up for reading ^33 P isotope.
The raw data was captured as cpm. Sample replicates were averaged and corrected for background count. Mean cpm data was tabulated by group and % inhibition by a test compound was calculated as (corrected cpm control-corrected. cpm sample/control)×100=% inhibition.

HL60 = assay: Inhibition of cancer cell growth as measured by cell number; assay type: cell-based, human; conditions: HL60, 48 hours
Text: (§1) The cell lines were chosen since they overexpressed epidermal growth factor receptor (EGFR) (i.e. A431) or HER2/neu (SKBR3), or had little to no expression of the these receptors (SW620, LOX, MCF7).

[3] = system: human epidermoid tumors (A431); assay: In vivo inhibition of the growth of human epidermoid tumors (A431) in mice; design: species or system human tumor in BALB/c nu/nu female mice; conditions: for tumor growth was inhibited by: 100 mg/kg i.p. days 1-10
Experimental: Representative compounds of this invention (listed below) were evaluated in an in vivo standard pharmacological test procedure which measured its ability to inhibit the growth of human epidermoid tumors. […] BALB/c nu/nu female mice (Charles River, Wilmington, Mass.) were used in this in vivo standard pharmacological test procedure. […] When tumors attained a mass of between 100 and 150 mg, the mice were randomized into treatment groups (day zero). Mice were treated IP once a day either on days 1, 5, and 9 or on days 1 through 10 post staging with doses of either 80, 40 or 20 mg/kg/dose of the compound to be evaluated in 0.2% Klucel. Control animals received no drug. Tumor mass was determined every 7 days [(length X width^2)/2] for 28 days post staging. Relative tumor growth (Mean tumor mass on days 7, 14, 21, and 28 divided by the mean tumor mass on day zero) is determined for each treatment group.

PC3 = assay: Inhibition of cancer cell growth as measured by cell number; assay type: cell-based, human; conditions: PC3, 48 hours
Text: as §1

[4] = target: T1, Epidermal Growth Factor Receptor Kinase (His-tagged cytoplasmic domain of EGFR) (Homo sapiens, UniProt P00533); assay: Inhibition of Epidermal Growth Factor Receptor Kinase (EGF-R) using recombinant enzyme; assay type: biochemical; conditions: average of number of tests, RR-SRC peptide
T1 construct: EGFR cDNA encoding amino acids 645-1186 preceded by Met-Ala-(His)6; made in house; host or cells: Sf9 insect cells, baculovirus vHcEGFR52
Experimental: Representative compounds of the invention were evaluated for their ability to inhibit the phosphorylation of the tyrosine residue of a peptide substrate catalyzed by the enzyme epidermal growth factor receptor kinase. […] The enzyme used in this assay is the His-tagged cytoplasmic domain of EGFR. A recombinant baculovirus (vHcEGFR52) was constructed containing the EGFR cDNA encoding amino acids 645-1186 preceded by Met-Ala-(His)6. Sf9 cells in 100 mm plates were infected at an moi of 10 pfu/cell and cells were harvested 48 h post infection. A cytoplasmic extract was prepared using 1% Triton X-100 and applied to Ni-NTA column. After washing the column with 20 mM imidazole, HcEGFR was eluted with 250 mM imidazole (in 50 mM NaHPO4, pH 8.0, 300 mM NaCl). […]
Compounds to be evaluated were made into 10 mg/mL stock solutions in 100% dimethylsulfoxide (DMSO). […]
For the enzyme reaction, 10 μL of each inhibitor (at various concentrations) were added to each well of a 96-well plate. […] The filter discs were washed 2× with 0.5% phosphoric acid and radioactivity was measured using a liquid scintillation counter.
The % inhibition of the test compound was determined for at least three different concentrations and the IC50 value was evaluated from the dose response curve. […]

[5] = target: T2, Kinase insert Domain containing Receptor (KDR; the catalytic domain of the VEGF receptor) (Homo sapiens, UniProt P35968); assay: Inhibition of Kinase insert Domain containing Receptor (KDR); assay type: biochemical
T2 construct: KDR; the catalytic domain of the VEGF receptor
Experimental: In this standard pharmacological test procedure, KDR protein is mixed, in the presence or absence of a inhibitor compound, with a substrate peptide to be phosphorylated (a copolymer of glutamic acid and tyrosine, E:Y::4:1) and other cofacters such as Mg^++ and sodium vanadate (a protein tyrosine phosphatase inhibitor) in an appropriate buffer to maintain pH (7.2). ATP and a radioactive tracer (either P^32 - or P^33 -labeled ATP) is then add to initiate phosphorylation. After incubation, the radioactive phosphate associated with the acid-insoluble fraction of the assay mixture is then qualified as reflection of substrate phosphorylation.

SKBR3 = assay: Inhibition of cancer cell growth as measured by cell number; assay type: cell-based, human; conditions: SKBR3, 48 hours, Table 8
Text: as §1

[6] = Table 10, 80 IP days 1, 5, 9, day 7
[7] = Table 10, 80 IP days 1, 5, 9, day 14
[8] = Table 10, 80 IP days 1, 5, 9, day 21
[9] = Table 10, 80 IP days 1, 5, 9, day 28
[10] = Table 10, 80 PO days 1-10, day 7
[11] = Table 10, 80 PO days 1-10, day 14
[12] = Table 10, 80 PO days 1-10, day 21
[13] = Table 10, 80 PO days 1-10, day 28
[14] = Table 11, 80 IP days 1, 5, 9, day 7
[15] = Table 11, 80 IP days 1, 5, 9, day 14
[16] = Table 11, 80 IP days 1, 5, 9, day 21
[17] = Table 11, 80 IP days 1, 5, 9, day 28
[18] = Table 11, 80 PO days 1-10, day 7
[19] = Table 11, 80 PO days 1-10, day 14
[20] = Table 11, 80 PO days 1-10, day 21
[21] = Table 11, 80 PO days 1-10, day 28

T2 sequence (P35968 834-1162 limits assumed): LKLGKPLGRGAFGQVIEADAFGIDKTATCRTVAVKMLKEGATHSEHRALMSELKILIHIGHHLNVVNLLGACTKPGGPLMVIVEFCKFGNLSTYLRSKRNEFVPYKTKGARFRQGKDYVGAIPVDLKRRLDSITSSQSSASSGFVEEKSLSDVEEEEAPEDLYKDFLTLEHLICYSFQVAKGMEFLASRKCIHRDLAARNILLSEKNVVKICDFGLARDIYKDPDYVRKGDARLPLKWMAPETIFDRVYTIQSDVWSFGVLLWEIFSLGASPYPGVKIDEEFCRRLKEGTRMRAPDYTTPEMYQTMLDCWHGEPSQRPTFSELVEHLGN
T1 sequence (P00533 669-1210): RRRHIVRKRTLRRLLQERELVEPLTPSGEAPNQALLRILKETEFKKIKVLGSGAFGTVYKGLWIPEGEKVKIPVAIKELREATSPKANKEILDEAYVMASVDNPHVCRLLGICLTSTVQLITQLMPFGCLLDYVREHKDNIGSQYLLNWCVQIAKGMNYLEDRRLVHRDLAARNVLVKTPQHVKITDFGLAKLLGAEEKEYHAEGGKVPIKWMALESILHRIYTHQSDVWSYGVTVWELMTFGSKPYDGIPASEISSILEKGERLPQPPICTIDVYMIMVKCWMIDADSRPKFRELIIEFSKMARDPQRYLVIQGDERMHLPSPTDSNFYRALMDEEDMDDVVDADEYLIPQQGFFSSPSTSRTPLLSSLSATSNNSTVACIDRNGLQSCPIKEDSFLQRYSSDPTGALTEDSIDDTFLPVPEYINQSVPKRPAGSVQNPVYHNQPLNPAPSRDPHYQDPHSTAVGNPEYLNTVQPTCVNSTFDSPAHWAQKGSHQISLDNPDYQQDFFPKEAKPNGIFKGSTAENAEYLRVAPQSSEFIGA
Sequence of gastric (H^+ /K^+)-ATPase (P19156 2-1034 limits assumed): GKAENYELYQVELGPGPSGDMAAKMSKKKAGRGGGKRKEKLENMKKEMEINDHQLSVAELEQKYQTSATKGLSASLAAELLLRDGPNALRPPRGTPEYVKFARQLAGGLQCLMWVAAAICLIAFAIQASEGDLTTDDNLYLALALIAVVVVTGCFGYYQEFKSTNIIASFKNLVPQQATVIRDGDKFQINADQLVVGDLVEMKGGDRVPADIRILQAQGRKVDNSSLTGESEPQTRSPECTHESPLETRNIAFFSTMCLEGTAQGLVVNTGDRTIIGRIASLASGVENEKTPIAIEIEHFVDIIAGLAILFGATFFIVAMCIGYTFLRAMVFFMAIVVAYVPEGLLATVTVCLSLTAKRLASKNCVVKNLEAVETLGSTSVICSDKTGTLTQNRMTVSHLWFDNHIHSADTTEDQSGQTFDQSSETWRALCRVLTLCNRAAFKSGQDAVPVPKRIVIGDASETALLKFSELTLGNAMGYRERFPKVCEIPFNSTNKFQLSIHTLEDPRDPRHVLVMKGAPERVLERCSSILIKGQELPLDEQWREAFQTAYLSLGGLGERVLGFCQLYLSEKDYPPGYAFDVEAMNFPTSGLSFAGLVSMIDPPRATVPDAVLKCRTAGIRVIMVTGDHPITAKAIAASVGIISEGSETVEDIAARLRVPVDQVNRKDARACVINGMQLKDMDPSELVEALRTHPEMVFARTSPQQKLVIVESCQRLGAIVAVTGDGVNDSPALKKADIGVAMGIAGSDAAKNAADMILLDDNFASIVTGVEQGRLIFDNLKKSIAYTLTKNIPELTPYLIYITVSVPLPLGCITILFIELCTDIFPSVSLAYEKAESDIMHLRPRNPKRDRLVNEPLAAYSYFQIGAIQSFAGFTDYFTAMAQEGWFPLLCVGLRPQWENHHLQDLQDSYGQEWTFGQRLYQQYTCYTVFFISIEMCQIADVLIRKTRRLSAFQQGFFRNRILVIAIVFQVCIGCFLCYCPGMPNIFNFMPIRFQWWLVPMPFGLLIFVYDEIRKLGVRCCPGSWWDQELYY
Sequence of gastric (H^+ /K^+)-ATPase (P18434 whole entry partner): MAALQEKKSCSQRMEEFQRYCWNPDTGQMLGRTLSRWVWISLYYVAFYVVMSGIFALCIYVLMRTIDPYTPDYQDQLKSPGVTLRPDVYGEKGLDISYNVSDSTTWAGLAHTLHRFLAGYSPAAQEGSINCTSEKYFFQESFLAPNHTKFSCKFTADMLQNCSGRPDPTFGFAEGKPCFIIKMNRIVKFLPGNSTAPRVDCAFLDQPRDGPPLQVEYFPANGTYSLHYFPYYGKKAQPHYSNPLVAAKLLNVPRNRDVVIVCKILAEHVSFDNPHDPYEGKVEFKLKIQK

For Cc1ccccc1Nc1c(C#N)cnc2ccccc12, the “gastric (H+/K+)-ATPase inhibitory activity” value [1] is given as “inhibitory activity at high concentrations”.
With “4-(3-Bromophenylamino)-6,7-di-methoxymethyl-3-quinolinecarbonitrile [Example 325]” the IC50 [2] was greater than 100 µM.
In the case of COc1cc2ncc(C#N)c(Nc3cccc(C#N)c3)c2cc1OC [Example 45, 4-[(3-Cyanophenyl)amino]-6,7-dimethoxy-3-quinolinecarbonitrile], the “Inhibition of Cancer Cell Growth as Measured by Cell Number (IC50)” value (shortened to “Inhibition of Cancer Cell Growth”) (HL60) is reported as greater than 1.00 µg/mL.
For CCOc1cc2ncc(C#N)c(Nc3cccc(Br)c3)c2cc1OCC [Example 47, 4-[(3-Bromophenyl)amino]-6,7-diethoxy-3-quinolinecarbonitrile], the “% T/C” value ([3]; 40 mg/kg/dose IP days 1-10, day 7) was 69%, the “% T/C” value ([3]; 40 mg/kg/dose IP days 1-10, day 14) was 74% and the “% T/C” value ([3]; 40 mg/kg/dose IP days 1-10, day 21) was 116%. The “% T/C” value ([3]; 40 mg/kg/dose IP days 1-10, day 28) was 136%, the “% T/C” value ([3]; 50 mg/kg/dose IP days 1-10, day 7) was 44% and the “% T/C” value ([3]; 50 mg/kg/dose IP days 1-10, day 14) was 55%. For the same compound, the “% T/C” value ([3]; 50 mg/kg/dose IP days 1-10, day 21) was 87%, the “% T/C” value ([3]; 50 mg/kg/dose IP days 1-10, day 28) was 102% and the “tumor growth was inhibited by” value ([3]; day 7) was 66%. For the same compound, the “tumor growth was inhibited by” value ([3]; day 14) was 63%, the “tumor growth was inhibited by” value ([3]; day 21) was 49% and the “tumor growth was inhibited by” value ([3]; day 28) was 57%. The “% T/C” value ([3]; 100 mg/kg/dose IP days 1-10, day 7) was 34%, the “% T/C” value ([3]; 100 mg/kg/dose IP days 1-10, day 14) was 37% and the “% T/C” value ([3]; 100 mg/kg/dose IP days 1-10, day 21) was 51%. The “% T/C” value ([3]; 100 mg/kg/dose IP days 1-10, day 28) was 43%, the “Tumor growth inhibition, dose dependence” value ([3]; i.p. days 1-10) was “appeared to be dose dependent” and the “Inhibition of Cancer Cell Growth” value (PC3) was 0.11 µg/mL.
Compound CN(C)CC=CC(=O)Nc1ccc2ncc(C#N)c(Nc3cccc(Br)c3)c2c1 [Example 99, 4-Dimethylamino-but-2-enoic acid [4-(3-bromo-phenylamino)-3-cyano-quinolin-6-yl]-amide] has an IC50 [4] of 0.03 µM.
CCN(CC)CC=CC(=O)Nc1ccc2ncc(C#N)c(Nc3cccc(Br)c3)c2c1 [Example 100, 4-Diethylamino-but-2-enoic acid [4-(3-bromo-phenylamino)-3-cyano-quinolin-6-yl]-amide] showed an IC50 [4] of 0.1 µM.
Work on C=CC(=O)Nc1cc(CN(C)C)c2ncc(C#N)c(Nc3cccc(Br)c3)c2c1 [Example 111, N-{4-[(3-Bromophenyl)amino]-3-cyano-8-dimethylaminomethyl-6-quinolinyl}-2-propenamide] yielded an IC50 [2] of 100 µM.
With C=CC(=O)Nc1ccc2ncc(C#N)c(Nc3cccc(C#N)c3)c2c1 [Example 160, N-{3-Cyano-4-[(3-cyanophenyl)amino]-6-quinolinyl}-2-propenamide] the “KDR IC50” value [5] was 30 µg/mL.
Work on C=C(CN1CCOCC1)C(=O)Nc1ccc2ncc(C#N)c(Nc3cccc(Br)c3)c2c1 [Example 171, N-{4-[(3-Bromophenyl)amino]-3-cyano-6-quinolinyl}-2-morpholin-4-ylmethyl-2-propenamide] yielded an IC50 [2] of 100 µM.
With COc1cc2ncc(C#N)c(Nc3ccc(F)c(Cl)c3)c2cc1NC(=O)C=CCN(C)C [Example 203, 4-Dimethylamino-but-2-enoic acid [4-(3-chloro-4-fluoro-phenylamino)-3-cyano-7-methoxy-quinolin-6-yl]-amide] the “Inhibition of Cancer Cell Growth” value (SKBR3) was 0.1 µg/mL, the “% T/C” value [3, 6] was 20% and the “% T/C” value [3, 7] was 12%. The “% T/C” value [3, 8] was 14%, the “% T/C” value [3, 9] was 16% and the “% T/C” value [3, 10] was 15%. The “% T/C” value [3, 11] was 8%, the “% T/C” value [3, 12] was 12% and the “% T/C” value [3, 13] was 17%.
For CCN(CC)CC=CC(=O)Nc1cc2c(Nc3ccc(F)c(Cl)c3)c(C#N)cnc2cc1OC [Example 204, 4-Diethylamino-but-2-enoic acid [4-(3-chloro-4-fluoro-phenylamino)-3-cyano-7-methoxy-quinolin-6-yl]-amide], the “% T/C” value [3, 6] was 45%, the “% T/C” value [3, 7] was 42% and the “% T/C” value [3, 8] was 55%. For the same compound, the “% T/C” value [3, 9] was 49%, the “% T/C” value [3, 10] was 25% and the “% T/C” value [3, 11] was 18%. The “% T/C” value [3, 12] was 43% and the “% T/C” value [3, 13] was 51%.
With COc1cc2ncc(C#N)c(Nc3ccc(F)c(Cl)c3)c2cc1NC(=O)C=CCN1CCOCC1 [Example 205, 4-Morpholin-4-yl-but-2-enoic acid [4-(3-chloro-4-fluoro-phenylamino)-3-cyano-7-methoxy-quinolin-6-yl]-amide] the “% T/C” value [3, 6] was 30%, the “% T/C” value [3, 7] was 25% and the “% T/C” value [3, 8] was 38%. The “% T/C” value [3, 9] was 61%, the “% T/C” value [3, 10] was 23% and the “% T/C” value [3, 11] was 19%. The “% T/C” value [3, 12] was 23% and the “% T/C” value [3, 13] was 29%.
With COc1cc2ncc(C#N)c(Nc3ccc(F)c(Br)c3)c2cc1NC(=O)C=CCN(C)C [Example 208, 4-Dimethylamino-but-2-enoic acid [4-(3-bromo-4-fluoro-phenylamino)-3-cyano-7-methoxy-quinolin-6-yl]-amide] the “% T/C” value [3, 14] was 14%, the “% T/C” value [3, 15] was 15% and the “% T/C” value [3, 16] was 26%. For the same compound, the “% T/C” value [3, 17] was 32%, the “% T/C” value [3, 18] was 6% and the “% T/C” value [3, 19] was 6%. For the same compound, the “% T/C” value [3, 20] was 8% and the “% T/C” value [3, 21] was 10%.
For CCN(CC)CC=CC(=O)Nc1cc2c(Nc3ccc(F)c(Br)c3)c(C#N)cnc2cc1OC [Example 209, 4Diethylamino-but-2-enoic acid [4(3-bromo-4-fluoro-phenylamino)-3-cyano-7-methoxy-quinolin-6-yl]-amide], the “KDR IC50” value [5] was 30 µg/mL.
With CCOc1cc2ncc(C#N)c(Nc3cccc(Br)c3)c2cc1NC(=O)C=CCN(C)C [Example 216, 4-Dimethylamino-but-2-enoic acid [4-(3-bromo-phenylamino)-3-cyano-7-ethoxy-quinolin-6-yl]-amide] the “% T/C” value [3, 14] was 14%, the “% T/C” value [3, 15] was 12% and the “% T/C” value [3, 16] was 17%. For the same compound, the “% T/C” value [3, 17] was 19%, the “% T/C” value [3, 18] was 6% and the “% T/C” value [3, 19] was 6%. The “% T/C” value [3, 20] was 12%, the “% T/C” value [3, 21] was 21% and the “KDR IC50” value [5] was 30 µg/mL.
In the case of CCOc1cc2ncc(C#N)c(Nc3cccc(Br)c3)c2cc1NC(=O)C=CCN(CC)CC [Example 217, 4-Diethylamino-but-2-enoic acid [4-(3-bromo-phenylamino)-3-cyano-7-ethoxy-quinolin-6-yl]-amide], the “% T/C” value [3, 14] is reported as 25%, the “% T/C” value [3, 15] is reported as 36% and the “% T/C” value [3, 16] is reported as 51%. The “% T/C” value [3, 17] was 56%, the “% T/C” value [3, 18] was 30% and the “% T/C” value [3, 19] was 33%. For the same compound, the “% T/C” value [3, 20] was 43%, the “% T/C” value [3, 21] was 42% and the “KDR IC50” value [5] was 30 µg/mL.
In the case of COc1ccc(OC)c2c(Nc3ccc(Cl)cc3F)c(C#N)cnc12 [Example 238, 4-(4-Chloro-2-fluoro-phenylamino)-5.8-dimethoxyquinoline-3-carbonitrile], the IC50 [2] is reported as greater than 100 µM.
For CCOc1cc2[nH]cc(C#N)c(=O)c2cc1OCC [Example 252, 1,4-Dihydroquinoline-6,7-diethoxy-4-oxo-3-carbonitrile], the IC50 [2] was 100 µM.
For COc1ccc2ncc(C#N)c(Nc3ccc(Cl)cc3F)c2c1 [Example 283, 4-(4-Chloro-2-fluoro-phenylamino)-6-methoxy-quinoline-3-carbonitrile], the “KDR IC50” value [5] was 30 µg/mL.
For COc1ccc2ncc(C#N)c(Nc3ccc(C)c(O)c3)c2c1 [Example 284, 4-(3-Hydroxy-4-methyl-phenylamino)-6-methoxy-quinoline-3-carbonitrile], the “KDR IC50” value [5] was 30 µg/mL.
For CCCCOc1cc2ncc(C#N)c(Nc3cccc(Br)c3)c2cc1OCCCC [Example 305, 4(3-Bromophenylamino)-6,7-di-n-butoxy-3-quinolinecarbonitrile], the “KDR IC50” value [5] was 30 µg/mL.
With COc1ccc2c(Nc3ccc(Cl)cc3F)c(C#N)cnc2c1 [Example 307, 4-(4-Chloro-2-fluorophenylamino)-7-methoxy-3-quinolinecarbonitrile] the “KDR IC50” value [5] was 30 µg/mL.
With N#Cc1cnc2cc(O)ccc2c1Nc1ccc(Cl)cc1F [Example 308, 4-(4-Chloro-2-fluorophenylamino)-7-hydroxy-3-quinolinecarbonitrile] the “KDR IC50” value [5] was 30 µg/mL.
In the case of COCCOc1cc2ncc(C#N)c(Nc3cccc(Br)c3)c2cc1OCCOC [Example 311, 4-[(3-Bromophenyl)amino]-6,7-bis(2-methoxyethoxy)-3-quinolinecarbonitrile], the IC50 [2] is reported as 70 µM.
With COc1cc2ncc(C#N)c(Nc3cccc(C(C)=O)c3)c2cc1OC [Example 324, 4(3-acetylphenylamino)-6,7-dimethoxy-3-quinolinecarbonitrile] the IC50 [2] was 100 µM.
